Values joined by “and” are separate entries in the source; they are usually repeats but may differ in a detail not shown here. Equal values may be shown once. “Also recorded” adds a separate entry of the source.
Assays:
[1] = Single dose study: plasma pharmacokinetics after a single oral dose; format: in vivo, human; conditions: for AUC(0-48): mean (SD)
Method: (§1) Two clinical studies were carried out: a single dose study and a repeat dose study. Both studies were parallel-group, double-blind, dose-rising, and placebo-controlled in design.
(§2) In each group, 1 subject received placebo. […] In each group, 2 subjects received placebo.
(§3) Healthy young men, aged 18-45 years.
(§4) In the repeated dose study, an aqueous 0.5% methylcellulose suspension (Methocel A4M Premium, The Dow Chemical Company) was used. In both studies, the study medication was taken orally as a drink, followed by 50 ml of tap water.
(§5) The following procedures were done: • Safety assesment: laboratory assessments (routine biochemistry and urinalysis), physical examination, 12-lead ECO, ambulatory ECG, pulmonary function testing (FEV1), vital signs (semi-recumbent in the single dose study; semi-recumbent and standing in the repeat dose study).
(§6) Plasma samples were assayed for IB-MECA using LC/MS/MS. The lower limit of quantification (LLOQ) was 0.1 ng/mL. Intra-assay coefficients of variation (CV) were <5.0% and inter-assay CVs were <9.4%.
(§7) Maximum concentration (Cmax) and time to maximum concentration (tmax) were observed values. Other pharmacokinetic parameters (half-life, to AUC; and clearance, CL/F) were calculated by non-compartmental methods using WinNonlin® software (version 3.0, Pharsight, Mountain View, Calif., US). Accumulation indices of Cmax and AUC were calculated as ratio of values at steady state (Day 7) to the values on Day 1.

[2] = Repeat dose study: plasma pharmacokinetics on Days 1 and 7 of 12-hourly oral dosing; format: in vivo, human
Method: as §1, §2, §3, §4, §5, §6, §7

[3] = Single dose study: safety and tolerability; format: in vivo, human; conditions: for safety and tolerability: single (daily) oral dose up to 5 mg
Method: as §1, §2, §3, §4, §5
(§8) Data from all subjects who received IB-MECA were included in the analysis of safety and tolerability (adverse events and laboratory safety variables). Numerical data and parameters were summarised using means or medians, and other descriptive statistics, according to the type and distribution of the data.

[4] = Repeat dose study: safety and tolerability; format: in vivo, human; conditions: for safety and tolerability: twice daily (12-hourly) oral dose up to 4 mg
Method: as §1, §2, §3, §4, §5, §8

[5] = Water solubility; format: physicochemical
[6] = test system: various tumour cell types; conditions: arresting cell growth at GO/GI phase; Fishman et al, 2000a; cited from earlier work
[7] = test system: syngeneic (melanoma, colon carcinoma) and xenograft (colon and prostate carcinoma) mouse models; conditions: cited from earlier work
[8] = test system: neutrophils; conditions: cited from earlier work
[9] = 2 mg oral every 12 h, Day 1, mean (SD), n = 5
[10] = 2 mg oral every 12 h, Day 7, mean (SD), n = 5
[11] = 3 mg oral every 12 h, Day 1, mean (SD), n = 5
[12] = 3 mg oral every 12 h, Day 7, mean (SD), n = 5
[13] = 4 mg oral every 12 h, Day 1, mean (SD), n = 5
[14] = 4 mg oral every 12 h, Day 7, mean (SD), n = 5
[15] = 5 mg oral every 12 h, Day 1, mean (SD), n = 5
[16] = 5 mg oral every 12 h, Day 7, mean (SD), n = 5

CNC(=O)[C@H]1O[C@@H](n2cnc3c(NCc4cccc(I)c4)ncnc32)[C@H](O)[C@@H]1O [IB-MECA, methyl 1-[N6-(3-iodobenzyl)-adenin-9-yl]-β-D-ibofuronamide]
plasma level (Cmax) at safe doses ([1]; single daily dose of 5 mg and twice daily dose of 4 mg): < 80 ng/mL
AUC(0-48) ([1]; single oral dose 1 mg, n = 4): 220.7 ng·h/mL
tmax ([1]; single oral dose 1 mg, median (range), n = 4): 1 (1-2) h
AUC(0-48) ([1]; single oral dose 5 mg, n = 4): 872.3 ng·h/mL
tmax ([1]; single oral dose 5 mg, median (range), n = 4): 1 (1-2) h
AUC(0-48) ([1]; single oral dose 10 mg, n = 4): 1780.0 ng·h/mL
tmax ([1]; single oral dose 10 mg, median (range), n = 4): 1 (1-2) h
inter-subject variability ([1]; single oral doses): low
pharmacokinetics (linearity) ([1]; single oral doses 1, 5, 10 mg): linear
tmax ([1]; single oral doses 1, 5, 10 mg, overall range): 1 to 2 h
apparent plasma clearance (CL/F) ([1]; single oral doses, independent of dose): 47 L/h
AUC(0-12) [2, 9]: 155.2 (39.1) ng · h/mL
AUC(inf) [2, 9]: 207.4 (52.0) ng · h/mL
tmax ([2]; 2 mg oral every 12 h, Day 1, median (range), n = 5): 2 (1-4) h
AUC(0-12) [2, 10]: 242.4 (41.4) ng · h/mL
AUC(0-24) [2, 10]: 346.3 (64.0) ng · h/mL
tmax ([2]; 2 mg oral every 12 h, Day 7, median (range), n = 5): 2 (1-2) h
AUC(0-12) [2, 11]: 304.5 (19.5) ng · h/mL
AUC(inf) [2, 11]: 423.5 (27.5) ng · h/mL
tmax ([2]; 3 mg oral every 12 h, Day 1, median (range), n = 5): 2 (1-2) h
AUC(0-12) [2, 12]: 341.6 (38.1) ng · h/mL
AUC(0-24) [2, 12]: 512.1 (74.1) ng · h/mL
tmax ([2]; 3 mg oral every 12 h, Day 7, median (range), n = 5): 1 (1-2) h
AUC(0-12) [2, 13]: 297.0 (57.2) ng · h/mL
AUC(inf) [2, 13]: 400.2 (85.7) ng · h/mL
tmax ([2]; 4 mg oral every 12 h, Day 1, median (range), n = 5): 2 (1-2) h
AUC(0-12) [2, 14]: 458.3 (54.8) ng · h/mL
AUC(0-24) [2, 14]: 640.3 (73.7) ng · h/mL
tmax ([2]; 4 mg oral every 12 h, Day 7, median (range), n = 5): 1 (1-2) h
AUC(0-12) [2, 15]: 461.6 (157.4) ng · h/mL
AUC(inf) [2, 15]: 596.1 (196.6) ng · h/mL
tmax ([2]; 5 mg oral every 12 h, Day 1, median (range), n = 5): 2 (1-2) h
AUC(0-12) [2, 16]: 601.0 (163.6) ng · h/mL
AUC(0-24) [2, 16]: 818.4 (214.0) ng · h/mL
tmax ([2]; 5 mg oral every 12 h, Day 7, median (range), n = 5): 2 (2-2) h
dose proportionality of plasma concentrations ([2]; Day 1 and steady state (Day 7)): dose proportional
tmax ([2]; repeated oral doses 2-5 mg every 12 h, overall): 1 to 2 h
time at which steady state was reached ([2]; repeated oral doses every 12 h): ≤ 3 days
change of pharmacokinetics after repeated dosing ([2]; repeated oral doses every 12 h for 7 days): did not change
Half-life at steady state ([2]; repeated oral doses, Day 7, independent of dose): 9 to 10 h
apparent plasma clearance (CL/F) ([2]; repeated oral doses, independent of dose): 5 to 10 L/h
blood level correlated with side effects ([3]; healthy adults, oral dosing): exceeding 160 nM and > 80 ng/ml
safety and tolerability [3]: safe and well tolerated
safety and tolerability ([3]; listed as 13-MCA): well tolerated
side effects ([3]; single daily oral dose 10 mg): some cardiovascular-related side effects
change in resting heart rate ([3]; single dose 5 mg, four subjects): small increase
adverse events within 12 h of dosing (number) ([3]; single dose of 10 mg): 8
safety tests of blood and urine ([3]; single dose study): no clinically significant changes
change in blood pressure ([3]; single dose study, not measured standing): In no subject was there a significant change
adverse events ([4]; 5 mg oral twice daily): some cardiovascular-related adverse events; also recorded: headache and drowsiness were most common
safety tests of blood and urine ([4]; repeat dose study): no clinically significant changes
heart rate ([4]; repeat dose study, Day 1): dose-related increase
heart rate effect ([4]; repeat dose study, Day 7 versus Day 1): clearly smaller
adverse events within 12 h of dosing (number) ([4]; repeated doses of 5 mg 12-hourly): 13
adverse events within 12 h of dosing (number) ([4]; repeated doses of up to 4 mg 12-hourly): 2
safety and tolerability [4]: safe and well tolerated
safety and tolerability ([4]; listed as 13-MCA): well tolerated
maximum tolerated dose ([4]; twice-daily therapeutic regimen): 4 mg
water solubility [5]: not water soluble
effect on tumour cell growth [6]: cytostatic effect
colon carcinoma growth ([7]; oral administration, nude mice): inhibits colon carcinoma growth
development of tumours ([7]; orally administered, syngeneic and xenograft mouse models): inhibits the development of tumours
myelotoxicity ([8]; administered with chemotherapy): protects against myelotoxicity
neutrophil recovery ([8]; oral administration, after cytotoxic drug therapy): stimulates neutrophil recovery
production of neutrophils ([8]; oral, mice, via an increase in G-CSF): stimulates the production of neutrophils

Source: US20050101560A1, “Method of treating an individual with methyl 1-[N6-(3-iodobenzyl)-adenin-9-yl] beta-D-ibofuronamide” (CAN-FITE BIOPHARMA LTD., priority 2003, published 2005)
